Laboratory results reported in patent US20070191490A1, “Withacnistin compounds for treatment of cancer” (priority 2006, published 2007).
Entries after “also recorded” stand apart in the source; their conditions may differ.

What was measured:
phosphotyrosine-JAK2 = experiment: Inhibition of phosphotyrosine-JAK2 levels in tumor cell lines (Western blotting); assay type: cell-based, human; conditions: for levels of P-JAK2: 10 μM, 4 hours; for IC50: Wit tested as withacnistin mixture; for P-JAK2 levels: A549 cells (FIG. 8A)
Procedure: (§1) Western blotting. Treated cell samples were lysed in 30 mM HEPES, pH 7.5, 10 mM NaCl, 5 mM MgCl2, 25 mM NaF, 1 mM EGTA, 1% Triton X-100, 10% glycerol, 2 mM sodium orthovanadate, 10 μg/ml aprotinin, 10μ/ml soybean trypsin inhibitor, 25 μg/ml leupeptin, 2 mM PMSF, and 6.4 mg/ml p-nitrophenylphosphate. Phospho-STAT3, phospho-AKT, phospho-Src, and phospho-p42/p44 MAPK antibodies were obtained from Cell Signaling Technologies (Cambridge, Mass., USA). Phospho-JNK and whole STAT3 antibodies were purchased from Santa Cruz Biotechnology (Santa Cruz, Calif., USA); phospho-JAK2 antibody came from Upstate Biotechnology (Lake Placid, N.Y., USA). Membranes were blocked in either 5% milk in phosphate-buffered saline (PBS), pH 7.4, containing 0.1% Tween-20 (PBS-T) or 1% BSA in tris-buffered saline (TBS), pH 7.5, containing 0.1% Tween-20 (TBS-T). Phospho-specific antibodies (excepting P-MAPK and P-JNK) were incubated in 1% BSA in TBS-T while all other antibodies were diluted in 5% milk in PBS-T for either 2 h at room temperature or overnight at 4° C. HRP-conjugated secondary antibodies (Jackson ImmunoResearch, West Grove, Pa., USA) were diluted in 5% milk in either PBS-T or TBS-T at 1:1000 dilution for 1 h at room temperature. Western blots were visualized using enhanced chemiluminescence.
(§2) To this end, A549 cells (a human non-small-cell lung carcinoma line) were treated with either vehicle, cucurbitacin analogs A, B, E, or I, or withacnistin mixture (10 ∥M) for 4 hours and the cell lysates processed for Western blotting with antiphosphotyrosine STAT3 (Y705) antibody or antiphosphotyrosine JAK2 (Y1007, Y1008) antibody as described under Materials and Methods.
(§3) As further support of the specific antiphosphotyrosine STAT3, but not antiphosphotyrosine JAK2, activity of withacnistin, A549 cells, as well as two breast carcinoma cell lines (MDA-MB-435 and MDA-MB-468) that also express constitutively activated JAK2 and STAT3, were treated with the withacnistin mixture at various concentrations, and determined IC50 values of inhibition of STAT3 and JAK2 activation.

JAK2 = experiment: Total JAK2 levels in A549 cells; assay type: cell-based, human; conditions: 10 μM, data not shown
Procedure: as §3, with “activation. […] In all three cell lines, JAK2 activation was not inhibited at withacnistin concentrations as high as 10 μM. […] Thus, in all three cell lines, withacnistin (Wit) inhibits specifically STAT3 but not JAK2 activation and Cuc A inhibits JAK2 but not STAT3 activation whereas Cuc I inhibits the activation of both STAT3 and JAK2.” for “activation.”

phosphotyrosine-STAT3 = experiment: Inhibition of phosphotyrosine-STAT3 levels in tumor cell lines (Western blotting); assay type: cell-based, human; conditions: for levels of P-STAT3: 10 μM, 4 hours; for IC50: Wit tested as withacnistin mixture; for potency compared with the withacnistin mixture (P-STAT3 suppression): A549 and MDA-MB-468 cells; for P-STAT3 levels: A549 cells (FIG. 8A)
Procedure: as §1, §2, §3

A549 cells [1] = experiment: TUNEL apoptosis assay, A549; assay type: cell-based, human; conditions: for apoptosis (TUNEL): 10 μM, 24 h
Procedure: (§4) In vitro cellular proliferation and TUNEL assays. Subconfluent A549, MDA-MB-435, MDA-MB-453, MDAMB-468, v-Src transformed NIH 3T3 (v-Src/3T3), H-Ras transformed NIH 3T3 (H-Ras/3T3), and vector NIH 3T3 cells were grown in the presence of 10 μM cucurbitacin A, cucurbitacin I, withacnistin mixture, or DMSO vehicle control. After 24 hours, cells were harvested by trypsinization and counted via trypan blue exclusion assay to determine cellular viability. In all, 75,000-150,000 cells (depending on cell line) were then spun onto glass slides using a Cytospin 3 centrifuge (Thermo Shandon Inc., Pittsburgh, Pa., USA). After fixing cells to the slides with 4% paraformaldehyde in PBS, pH 7.5, for 1 h at room temperature, cells were labeled for apoptotic DNA strand breaks by TUNEL reaction using an in situ cell death detection kit (Roche Applied Science, Indianapolis, Ind., USA) according to the manufacturer's instructions, then mounted in Vectashield mounting medium (Vector Laboratories, Burlingame, Calif., USA) containing 4′,6-diamidino-2-phenylindole (DAPI) to counterstain DNA. Fluorescein-labeled DNA strand breaks (TUNEL-positive cells) were then visualized using a fluorescent microscope (Leica Microsystems Inc., Bannockburn, Ill., USA) and pictures taken with a digital camera (Diagnostic Instruments, Inc., Sterling Heights, Mich., USA). TUNELpositive nuclei were counted and compared to DAPI-stained nuclei to determine the percent induction of apoptosis by the different cucurbitacin compounds. Statistical significance between control and treated tumors were evaluated by using Student's t-test.
The next objective was to determine whether the ability of the cucurbitacins and withacnistin to induce apoptosis is dependent on suppression of PJAK2 and/or P-STAT3 levels. To this end, A549 cells were treated with vehicle control, or cucurbitacins (10 μM), or the withacnistin mixture (10 μM) for 24 h, harvested the cells, and determined tumor cell death (trypan blue exclusion) and apoptosis (TUNEL) as described under Materials and methods. […]

A549 cells [2] = experiment: Trypan blue exclusion assay (tumor cell death); assay type: cell-based, human; conditions: 10 μM, 24 h
Procedure: In vitro cellular proliferation and TUNEL assays. Subconfluent A549, MDA-MB-435, MDA-MB-453, MDAMB-468, v-Src transformed NIH 3T3 (v-Src/3T3), H-Ras transformed NIH 3T3 (H-Ras/3T3), and vector NIH 3T3 cells were grown in the presence of 10 μM cucurbitacin A, cucurbitacin I, withacnistin mixture, or DMSO vehicle control. After 24 hours, cells were harvested by trypsinization and counted via trypan blue exclusion assay to determine cellular viability. In all, 75,000-150,000 cells (depending on cell line) were then spun onto glass slides using a Cytospin 3 centrifuge (Thermo Shandon Inc., Pittsburgh, Pa., USA). […] TUNELpositive nuclei were counted and compared to DAPI-stained nuclei to determine the percent induction of apoptosis by the different cucurbitacin compounds. Statistical significance between control and treated tumors were evaluated by using Student's t-test.
The next objective was to determine whether the ability of the cucurbitacins and withacnistin to induce apoptosis is dependent on suppression of PJAK2 and/or P-STAT3 levels. To this end, A549 cells were treated with vehicle control, or cucurbitacins (10 μM), or the withacnistin mixture (10 μM) for 24 h, harvested the cells, and determined tumor cell death (trypan blue exclusion) and apoptosis (TUNEL) as described under Materials and methods.

phospho-Src = phospho-Src levels in A549 cells (Western blotting); assay type: cell-based, human; conditions: 10 μM, 4 hours
Procedure: as §1, with “Western blots were visualized using enhanced chemiluminescence.” left out
It was next determined whether withacnistin and the Cuc analogs are selective for the JAK2/STAT3 pathway over other signal transduction pathways. […]

H-Ras/3T3 cells = experiment: TUNEL apoptosis assay, H-Ras/3T3; assay type: cell-based, murine; conditions: 10 μM withacnistin mixture, 24 hours
Procedure: as §4, with “Fluorescein-labeled DNA strand breaks (TUNEL-positive cells) were then visualized using a fluorescent microscope (Leica Microsystems Inc., Bannockburn, Ill., USA) and pictures taken with a digital camera (Diagnostic Instruments, Inc., Sterling Heights, Mich., USA).” left out, “t-test. […]” for “t-test.”

Q: With `CC(=O)OC(C)(C)/C=C/C(=O)[C@](C)(O)[C@H]1[C@H](O)C[C@@]2(C)[C@@H]3CC=C4[C@@H](C[C@H](O)C(=O)C4(C)C)[C@]3(CO)C(=O)C[C@]12C` [Cuc A, cucurbitacin A] as the compound, how does the “levels of P-JAK2” value (phosphotyrosine-JAK2; A549 cells) read?
A: suppressed; also recorded: potently inhibited

Q: What about the IC50 (phosphotyrosine-JAK2; A549 cells) of the same compound?
A: 1500 ± 700 nM

Q: What about the IC50 (phosphotyrosine-JAK2; MDA-MB-435 cells) of the same compound?
A: 650 ± 50 nM

Q: And the IC50 (phosphotyrosine-JAK2; MDA-MB-468 cells)?
A: 860 nM

Q: And the “total JAK2 levels” value (JAK2)?
A: none of the three compounds affects

Q: What about the “levels of P-STAT3” value (phosphotyrosine-STAT3; A549 cells) of the same compound?
A: had no effect; also recorded: little inhibitory activity

Q: What about the IC50 (phosphotyrosine-STAT3; A549 cells) of the same compound?
A: > 10000 nM

Q: What about the IC50 (phosphotyrosine-STAT3; MDA-MB-435 cells) of the same compound?
A: > 10000 nM

Q: What about the IC50 (phosphotyrosine-STAT3; MDA-MB-468 cells) of the same compound?
A: > 10000 nM

Q: And the “apoptosis (TUNEL)” value (A549 cells [1])?
A: 5%

Q: And the “tumor cell death (trypan blue exclusion)” value (A549 cells [2])?
A: 11%

Q: And the “phosphotyrosine levels of Src” value (phospho-Src)?
A: little inhibitory activity

Q: Which results are given for `CC(=O)OC[C@]12CC[C@H]3[C@@H](C[C@H]4O[C@]45[C@@H](O)C=CC(=O)[C@]35C)[C@@H]1CC[C@@H]2[C@H](C)[C@H]1CC(C)=C(C)C(=O)O1` [withacnistin]?
A: P-JAK2 levels (phosphotyrosine-JAK2): but not P-JAK2; IC50 (phosphotyrosine-JAK2; A549 cells): > 10000 nM; IC50 (phosphotyrosine-JAK2; MDA-MB-435 cells): > 10000 nM; IC50 (phosphotyrosine-JAK2; MDA-MB-468 cells): > 10000 nM; total JAK2 levels (JAK2): none of the three compounds affects; P-STAT3 (phosphotyrosine-STAT3; A549 and MDA-MB468 cells, 4-hour treatment (FIGS. 7A, 7B)): inhibit; potency compared with the withacnistin mixture (P-STAT3 suppression) (phosphotyrosine-STAT3; listed as W): slightly more potent than WM; potency compared with the withacnistin mixture (P-STAT3 suppression) (phosphotyrosine-STAT3; listed as pure withacnistin): more potent than the withacnistin mixture; P-STAT3 levels (phosphotyrosine-STAT3): suppressed; IC50 (phosphotyrosine-STAT3; A549 cells): 3700 ± 1700 nM; IC50 (phosphotyrosine-STAT3; MDA-MB-435 cells): 900 ± 600 nM; IC50 (phosphotyrosine-STAT3; MDA-MB-468 cells): 1400 ± 700 nM; increase of percentage of apoptotic tumor cells compared to vehicle-treated control (A549 cells [1]; 10 μM withacnistin mixture, 24 hours): 27.4 fold; apoptosis (TUNEL) (A549 cells [1]): 28%; tumor cell death (trypan blue exclusion) (A549 cells [2]): 60%; apoptosis (TUNEL-positive cells) (H-Ras/3T3 cells): 7.3±4.7%; fold increase of apoptosis over control (H-Ras/3T3 cells): 12.5 fold

Q: What does the source list for `CC(C)(O)/C=C/C(=O)[C@](C)(O)[C@H]1[C@H](O)C[C@@]2(C)[C@@H]3CC=C4[C@@H](C=C(O)C(=O)C4(C)C)[C@]3(C)C(=O)C[C@]12C` [Cuc I, cucurbitacin I]?
A: P-JAK2 levels (phosphotyrosine-JAK2): suppressed the levels of both; levels of P-JAK2 (phosphotyrosine-JAK2; A549 cells): inhibited; IC50 (phosphotyrosine-JAK2; A549 cells): 250 ± 90 nM; IC50 (phosphotyrosine-JAK2; MDA-MB-435 cells): 180 ± 70 nM; IC50 (phosphotyrosine-JAK2; MDA-MB-468 cells): 400 ± 260 nM; total JAK2 levels (JAK2): none of the three compounds affects; P-STAT3 levels (phosphotyrosine-STAT3): suppressed the levels of both; levels of P-STAT3 (phosphotyrosine-STAT3; A549 cells): inhibited; IC50 (phosphotyrosine-STAT3; A549 cells): 800 ± 700 nM; IC50 (phosphotyrosine-STAT3; MDA-MB-435 cells): 4600 ± 1900 nM; IC50 (phosphotyrosine-STAT3; MDA-MB-468 cells): 7500 ± 1500 nM
